Data: the supplement of paper PMC9663587

What was measured:
FMF-03-146-1 = compound: CN1CCN(CC1)C2=CC(=C(C=C2)NC3=NC=C4C(=N3)N(C5=CC=CC=C5C(=O)N4CC(F)(F)F)C)OC [FMF-03-146-1]; experiment: increase in dead-cell fraction, 72 h; higher = more death;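 further: breast cancer cell lines in 384-well plates, stained with Hoechst plus LIVE/DEAD far red dye and imaged, cells above an LDR intensity threshold counted dead, Hoechst-negative corpses included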
Saracatinib/AZD0530 = compound: CN1CCN(CCOc2cc(OC3CCOCC3)c3c(Nc4c(Cl)ccc5c4OCO5)ncnc3c2)CC1 [Saracatinib/AZD0530]; experiment: as above
Torin2 = compound: C1=CC(=CC(=C1)N2C(=O)C=CC3=CN=C4C=CC(=CC4=C32)C5=CN=C(C=C5)N)C(F)(F)F [Torin2]; experiment: GR value, 72 h; higher = faster growth (1 = untreated, <0 = killing);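 further: breast cancer and non-malignant breast epithelial lines, nine half-log doses, viable cells counted by Hoechst and LIVE/DEAD dye imaging versus time-zero plates and DMSO controls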
R0-3306 = compound: C1=CC2=C(C=CC(=C2)C=C3C(=O)NC(=NCC4=CC=CS4)S3)N=C1 [R0-3306]; experiment: as above
BVD523 = compound: CC(C)Nc1cc(-c2c[nH]c(C(=O)N[C@H](CO)c3cccc(Cl)c3)c2)c(Cl)cn1 [BVD523]; experiment: as above
SHP099 = compound: CC1(CCN(CC1)C2=CN=C(C(=N2)N)C3=C(C(=CC=C3)Cl)Cl)N [SHP099]; experiment: as above
TGX221 = compound: CC1=CN2C(=O)C=C(N=C2C(=C1)C(C)NC3=CC=CC=C3)N4CCOCC4 [TGX221]; experiment: as above
FMF-03-145-1 = compound: CCC(=O)Nc1ccc(C(=O)Nc2ccc(Nc3ncc4c(n3)N(C)c3ccc(C)cc3C(=O)N4C)cc2)cc1 [FMF-03-145-1]; experiment: as above
Volasertib/BI6727 = compound: CC[C@@H]1C(=O)N(C)c2cnc(Nc3ccc(C(=O)N[C@H]4CC[C@H](N5CCN(CC6CC6)CC5)CC4)cc3OC)nc2N1C(C)C [Volasertib/BI6727]; experiment: as above
Rucaparib = compound: CNCc1ccc(-c2[nH]c3cc(F)cc4c3c2CCNC4=O)cc1 [Rucaparib]; experiment: as above
AZD6738 = compound: C[C@@H]1COCCN1c1cc(C2([S@](C)(=N)=O)CC2)nc(-c2cc[nH]c3nccc2-3)n1 [AZD6738]; experiment: as above
AZD5363 = compound: NC1(C(=O)N[C@@H](CCO)c2ccc(Cl)cc2)CCN(c2nc[nH]c3nccc2-3)CC1 [AZD5363]; experiment: as above

For AU565, the “increase in dead-cell fraction” value (FMF-03-146-1; 0.001 µM) was -0.0004, the “increase in dead-cell fraction” value (FMF-03-146-1; 0.003162 µM) was -0.0059 and the “increase in dead-cell fraction” value (FMF-03-146-1; 0.01 µM) was -0.0077. The “increase in dead-cell fraction” value (FMF-03-146-1; 0.03162 µM) was -0.0019, the “increase in dead-cell fraction” value (FMF-03-146-1; 0.1 µM) was -0.007 and the “increase in dead-cell fraction” value (FMF-03-146-1; 0.3162 µM) was 0.0094. The “increase in dead-cell fraction” value (FMF-03-146-1; 1 µM) was 0.0124, the “increase in dead-cell fraction” value (FMF-03-146-1; 3.162 µM) was -0.0094 and the “increase in dead-cell fraction” value (FMF-03-146-1; 10 µM) was 0.0136. For the same cell line, the “increase in dead-cell fraction” value (Saracatinib/AZD0530; 0.001 µM) was -0.003, the “increase in dead-cell fraction” value (Saracatinib/AZD0530; 0.003162 µM) was 0.0003 and the “increase in dead-cell fraction” value (Saracatinib/AZD0530; 0.01 µM) was 0.0038. For the same cell line, the “increase in dead-cell fraction” value (Saracatinib/AZD0530; 0.03162 µM) was -0.0046, the “increase in dead-cell fraction” value (Saracatinib/AZD0530; 0.1 µM) was -0.0038 and the “increase in dead-cell fraction” value (Saracatinib/AZD0530; 0.3162 µM) was -0.0029. The “increase in dead-cell fraction” value (Saracatinib/AZD0530; 1 µM) was 0.0012, the “increase in dead-cell fraction” value (Saracatinib/AZD0530; 3.162 µM) was 0.0017 and the “increase in dead-cell fraction” value (Saracatinib/AZD0530; 10 µM) was 0.0305. It also gave a GR value (Torin2; 0.0001 µM) of 1.06 GR, a GR value (Torin2; 0.0003162 µM) of 1.02 GR and a GR value (Torin2; 0.001 µM) of 0.884 GR. It also gave a GR value (Torin2; 0.003162 µM) of 0.698 GR, a GR value (Torin2; 0.01 µM) of 0.222 GR and a GR value (Torin2; 0.03162 µM) of -0.0323 GR. It also gave a GR value (Torin2; 0.1 µM) of -0.152 GR, a GR value (Torin2; 0.3162 µM) of -0.239 GR and a GR value (Torin2; 1 µM) of -0.395 GR. For the same cell line, the GR value (R0-3306; 0.001 µM) was 0.805 GR, the GR value (R0-3306; 0.003162 µM) was 0.756 GR and the GR value (R0-3306; 0.01 µM) was 0.522 GR. It also gave a GR value (R0-3306; 0.03162 µM) of 0.735 GR, a GR value (R0-3306; 0.1 µM) of 0.692 GR and a GR value (R0-3306; 0.3162 µM) of 0.711 GR. For the same cell line, the GR value (R0-3306; 1 µM) was 0.548 GR, the GR value (R0-3306; 3.162 µM) was 0.375 GR and the GR value (R0-3306; 10 µM) was -0.214 GR. For the same cell line, the GR value (BVD523; 0.001 µM) was 1.17 GR, the GR value (BVD523; 0.003162 µM) was 0.925 GR and the GR value (BVD523; 0.01 µM) was 1.04 GR. It also gave a GR value (BVD523; 0.03162 µM) of 0.941 GR, a GR value (BVD523; 0.1 µM) of 1.06 GR and a GR value (BVD523; 0.3162 µM) of 0.956 GR. For the same cell line, the GR value (BVD523; 1 µM) was 0.985 GR, the GR value (BVD523; 3.162 µM) was 0.761 GR and the GR value (BVD523; 10 µM) was 0.525 GR. The GR value (SHP099; 0.001 µM) was 0.972 GR, the GR value (SHP099; 0.003162 µM) was 0.94 GR and the GR value (SHP099; 0.01 µM) was 0.815 GR. The GR value (SHP099; 0.03162 µM) was 1.07 GR, the GR value (SHP099; 0.1 µM) was 1 GR and the GR value (SHP099; 0.3162 µM) was 0.949 GR. For the same cell line, the GR value (SHP099; 1 µM) was 0.925 GR, the GR value (SHP099; 3.162 µM) was 0.932 GR and the GR value (SHP099; 10 µM) was 0.939 GR. The GR value (TGX221; 0.001 µM) was 0.923 GR, the GR value (TGX221; 0.003162 µM) was 0.912 GR and the GR value (TGX221; 0.01 µM) was 0.868 GR. It also gave a GR value (TGX221; 0.03162 µM) of 0.964 GR, a GR value (TGX221; 0.1 µM) of 0.916 GR and a GR value (TGX221; 0.3162 µM) of 0.889 GR. It also gave a GR value (TGX221; 1 µM) of 0.919 GR, a GR value (TGX221; 3.162 µM) of 0.852 GR and a GR value (TGX221; 10 µM) of 0.58 GR. It also gave a GR value (FMF-03-145-1; 0.0001 µM) of 0.967 GR, a GR value (FMF-03-145-1; 0.0003162 µM) of 0.975 GR and a GR value (FMF-03-145-1; 0.001 µM) of 0.99 GR. It also gave a GR value (FMF-03-145-1; 0.003162 µM) of 0.971 GR, a GR value (FMF-03-145-1; 0.01 µM) of -0.215 GR and a GR value (FMF-03-145-1; 0.03162 µM) of -0.0803 GR. It also gave a GR value (FMF-03-145-1; 0.1 µM) of -0.163 GR, a GR value (Volasertib/BI6727; 0.0001 µM) of 1.07 GR and a GR value (Volasertib/BI6727; 0.0003162 µM) of 0.998 GR. It also gave a GR value (Volasertib/BI6727; 0.001 µM) of 0.912 GR, a GR value (Volasertib/BI6727; 0.003162 µM) of 0.756 GR and a GR value (Volasertib/BI6727; 0.01 µM) of -0.409 GR. The GR value (Volasertib/BI6727; 0.03162 µM) was -0.516 GR, the GR value (Volasertib/BI6727; 0.1 µM) was -0.458 GR and the GR value (Volasertib/BI6727; 0.3162 µM) was -0.455 GR. It also gave a GR value (Volasertib/BI6727; 1 µM) of -0.206 GR, a GR value (Rucaparib; 0.001 µM) of 0.952 GR and a GR value (Rucaparib; 0.003162 µM) of 1.09 GR. The GR value (Rucaparib; 0.01 µM) was 0.804 GR, the GR value (Rucaparib; 0.03162 µM) was 0.916 GR and the GR value (Rucaparib; 0.1 µM) was 0.925 GR. It also gave a GR value (Rucaparib; 0.3162 µM) of 0.845 GR, a GR value (Rucaparib; 1 µM) of 1.01 GR and a GR value (Rucaparib; 3.162 µM) of 0.932 GR. It also gave a GR value (Rucaparib; 10 µM) of 0.714 GR, a GR value (AZD6738; 0.001 µM) of 0.973 GR and a GR value (AZD6738; 0.003162 µM) of 0.919 GR. It also gave a GR value (AZD6738; 0.01 µM) of 1.05 GR, a GR value (AZD6738; 0.03162 µM) of 1.14 GR and a GR value (AZD6738; 0.1 µM) of 1 GR. It also gave a GR value (AZD6738; 0.3162 µM) of 0.982 GR, a GR value (AZD6738; 1 µM) of 0.897 GR and a GR value (AZD6738; 3.162 µM) of 1.08 GR. The GR value (AZD6738; 10 µM) was 0.281 GR, the GR value (AZD5363; 0.001 µM) was 1.15 GR and the GR value (AZD5363; 0.003162 µM) was 0.991 GR. For the same cell line, the GR value (AZD5363; 0.01 µM) was 0.884 GR, the GR value (AZD5363; 0.03162 µM) was 0.793 GR and the GR value (AZD5363; 0.1 µM) was 0.786 GR. It also gave a GR value (AZD5363; 0.3162 µM) of 0.717 GR, a GR value (AZD5363; 1 µM) of 0.655 GR and a GR value (AZD5363; 3.162 µM) of 0.682 GR. It also gave a GR value (AZD5363; 10 µM) of 0.399 GR.
